Data as given in PMC5606850, “Acidic C-terminal domains autoregulate the RNA chaperone Hfq” (eLife, 2017).
“Also recorded” adds a separate entry of the source.

What was measured:
[1] = system: 1000 bp DNA / pUC19 DNA; assay: Hfq·DNA aggregation: pelleting and protease assays; assay type: biochemical; conditions: 3.5 µM Hfq hexamer, 15 nM 1000 bp DNA (pelleting) or 6 nM pUC19 (protease assay), 25 °C
Procedure: Figure 5. CTD and RNAs inhibit DNA binding to Hfq by obstructing the basic rim patch. (A, B) Agarose gel electrophoretic mobility shift assays of 0–3.3 μM hexamer Hfq102, Hfq102-R16A, Hfq65 or Hfq65-R16A binding to 6 nM linear pUC19 DNA ([…]) at 25°C, stained with SYBR Gold. Hfq65 forms large aggregates that fail to enter the gel (Figure 5—figure supplement 1). (C, D) Line densitometry of DNA migration in (A, B). Free pUC19 (no Hfq) is shown in light grey. Samples with increasing Hfq concentration are shown in darker shades of grey. (E, F) RNA competition. Complexes of 0.5 μM Hfq102 hexamer and 6 nM linear pUC19 (black) were challenged by 0–2 μM RNA or DNA competitor (darker shades of red). pUC19 control in the absence of Hfq is shown in light grey. Icons indicate the binding surface for each competitor. See Figure 5—figure supplement 2 for gel images. Figure 5—figure supplement 1. Hfq CTD prevents aggregation with DNA. (A) Protease assay. 3.5 µM Hfq hexamer incubated with 6 nM linear (L) plus relaxed circular (N) pUC19 DNA at 25°C, for 30 min, in 50 mM Tris-HCl pH 7.5 and 10 mM CaCl2. The samples were divided in two. […] Digestion of Hfq65 and Hfq65-R16A with Proteinase K liberates DNA from Hfq•DNA aggregates, allowing it to be detected (lanes 9 and 10). […] The small proportion of Hfq65·DNA complexes remaining in the supernatant were only detected in the gel after treatment with salt. […]

[2] = system: Target and Target-U6 RNA; assay: RNA annealing kinetics (molecular beacon with Target and Target-U6), stopped-flow fluorescence; assay type: biochemical; conditions: 16 nt Target and Target-U6 RNA; 30 °C
Procedure: Figure 4. Shortening the CTD increases auto-inhibition by acidic residues. (A) Observed annealing rate constants for 100 nM target RNA and 50 nM molecular beacon with 0–200 nM Hfq hexamer at 30°C, measured by stopped-flow fluorescence. Black, Hfq102; red, Hfq-sCTD; cyan, Hfq65. (B) Fluorescence anisotropy assay for RNA binding and release. In stopped-flow FRET experiments, the dsRNA is released after pairing with its complementary strand ([Panja et al., 2013]; [Santiago-Frangos et al., 2016]). […] Remaining RNA was displaced from Hfq by excess ssDNA (400 nM DNA2). The averages and standard deviations for three trials are plotted for each Hfq variant. […] (D) Annealing of 5 nM ^32P-ChiX sRNA with 30 nM chiP mRNA without Hfq, or with Hfq65, Hfq102 or Hfq-sCTD, as indicated above each lane. Samples were loaded on a native polyacrylamide gel 60 min or 20 s after the components were mixed. […] (E) Fractions of free ChiX (black), ChiX·chiP dsRNA (light grey), ChiX·Hfq·chiP ternary complex (hatched) and ChiX·Hfq binary complex (dark grey) after 4 min of annealing, as analyzed by EMSA (Figure 4—figure supplement 2). […] Annealing of 100 nM Target RNA to 50 nM beacon RNA by Hfq variants was measured by stopped flow fluorescence at 30°C in 1 × TNK buffer. […] The change in fluorescence emission intensity was normalized to the maximum fluorescence within an experiment. […]

[3] = system: Hfq102; assay: RNA binding to Hfq102, fluorescence anisotropy; set-up: species or system E. coli; conditions: dsRNA product (D16-FAM·R16) versus ssRNA substrate (D16-FAM)

Hfq65-R16A
Hfq·DNA aggregation [1]: more evenly distributed between pellet and supernatant fractions; also recorded: form insoluble aggregates with DNA which do not enter the gel

Hfq65: truncated E. coli Hfq variant lacking the CTD
Hfq·DNA aggregation [1]: Nearly all of the Hfq65·DNA complexes were found in the pellet fraction; also recorded: form insoluble aggregates with DNA which do not enter the gel | annealing rate of Hfq65 relative to Hfq102 [2]: about five times faster than full-length Hfq102

Hfq102: full-length E. coli Hfq
Krel = Kd(P)/Kd(S), Hfq102 [3]: 7.5
